Experimental findings from article doi:10.1101/2024.08.19.608619, “Discovery of potent SARS-CoV-2 nsp3 macrodomain inhibitors uncovers lack of translation to cellular antiviral response” (bioRxiv, 2024) are described below.

One may read the EC50 as the concentration at which the effect is half-maximal. One may read the EC90 as the concentration needed for an effect of 90%. A word on the microsomal CLint: it is a measure of how fast metabolising enzymes remove a compound, apart from limits set by blood flow. Low readings indicate slow turnover, high ones rapid turnover. A word on the Papp A→B: it is how fast a substance crosses the layer from the apical side. Low readings indicate slow passage, high ones fast passage. As a reminder, the solubility is how much of the substance goes into solution per volume. Low values mean little dissolved substance, high ones much dissolved substance. Usually IC50 stands for the concentration at which inhibition is half-maximal.

Data set [1] deals with SARS-CoV-2, isolate USA-WA1/2020. The experiment in a line: microbe, parasite or virus in culture. Type of data set: cell-based. The following applies: HeLa-ACE2 SARS-CoV-2 antiviral effect without P-gp inhibitor; for perc_max_measured: maximum measured response of dose series; for EC50: read-out: ec50; for EC90: read-out: ec90.
Data set [2] has as its system SARS-CoV-2. The data set can be described thus: Antiviral effect in iPSC-derived pneumocyte system. The data set is classed as cell-based. The following applies: iPSC pneumocytes SARS-CoV-2 antiviral effect; for perc_max_measured: maximum measured response of dose series; for perc_min_measured: minimum measured response of dose series.
A short description of data set [3]: LogD. The following applies: pH 7.4.
For data set [4], the system named is iPSC pneumocytes. The data set can be described thus: iPSC pneumocytes cytotoxicity. Type of data set: cell-based. The settings on record: for perc_max_measured: highest measured response of the dose series; for perc_min_measured: lowest measured response of the dose series. An excerpt:
Supplement media-1.zip/Cytotoxicity.csv, table | column: cc10; cc50; perc_min_measured; perc_max_measured

Data set [5] can be described thus: in vitro. Set-up: Cytotoxicity in iPSC-derived pneumocytes, CC50. The following applies: human, ipsc-derived pneumocytes, read-out: 50.0. An excerpt:
Finally, we consider the hypothesis that interferon response triggers ADP-ribosylation, thus profiling the compounds in enhanced and physiologically relevant interferon environments could reveal detectable antiviral effects. […] Furthermore, HeLa-ACE2 cells, and all cancerous cell lines, display defective innate immune response ([1]). As such, we also assess our compound in a primary-like iPSC-derived pneumocyte system (Figure 7C), showing likewise a lack of antiviral activity in this physiologically relevant innate immunity system.

Data set [6] is described as follows: Hepatic microsomal stability, HLM. Type of data set: in vitro ADME, human. The settings on record: In vitro human liver microsomal stability; for perc_remaining_no_cofactor: no cofactor; for microsomal CLint: liver microsomes.
Data set [7] is described as follows: Permeability Papp (AB) MDR1/MDCKII. The settings on record: In vitro MDR1-MDCKII permeability, mean; for papp_a_to_b_mean: A to B; for perc_recovery_a_to_b_mean: recovery A to B.
Data set [8] can be described thus: In vitro kinetic solubility.
The subject of data set [9] is HeLa-ACE2 cells. The following applies: for perc_max_measured: highest measured response of the dose series; for perc_min_measured: lowest measured response of the dose series.
Data set [10] can be described thus: Hepatic microsomal stability, MLM. The data set is classed as in vitro ADME.
The test system of data set [11] is MDR1. The data set can be described thus: Permeability Papp (AB) MDR1/MDCKII. The following applies: dog, MDCK-MDR1, papp_a_to_b_mean, In vitro MDR1-MDCKII permeability, A to B, mean.
Data set [12] deals with T1, SARS-CoV-2 nsp3-mac1 (Severe acute respiratory syndrome coronavirus 2, UniProt P0DTD1). The data set can be described thus: biochemical. The settings on record: for hill_slope: TR-FRET dose response curve fit; for perc_max_measured: highest measured response; for perc_min_measured: lowest measured response.
For data set [13], the target named is T1, SARS-CoV-2 nsp3-mac1. The data set can be described thus: biochemical. The data set is classed as biochemical. The following applies: SARS-CoV-2 nsp3 macrodomain TR-FRET single point, concentration 50.0 uM. On the technique in general: In TR-FRET formats the signal depends on donor and acceptor labels being close together.
Data set [14] concerns the target T1, SARS-CoV-2 nsp3-mac1. The experiment in a line: biochemical. Set-up: SARS-CoV-2 nsp3 macrodomain TR-FRET single point, per cent inhibition, n=2.
[15] abbreviates: In vitro kinetic solubility, ph 7.4.
Setting [16] is: protocol HeLa-ACE2 cytotoxicity.
[17] abbreviates: In vitro mouse liver microsomal stability.
The mark [18] stands for this setting: In vitro mouse liver microsomal stability, no cofactor.
Where [19] appears, read: TR-FRET dose response, supplement, read-out: ic50.
Setting [20] is: In vitro mouse liver microsomal stability; no cofactor.
[21] abbreviates: protocol iPSC pneumocytes cytotoxicity.

Values after ≈ are worked out from the molar mass of the structure shown. Values joined by “and” are separate entries in the source; they are usually repeats but may differ in a detail not shown here. Identical values can stand only once. Like-named read-outs stand apart in the source and are kept apart here.

Turning to `CNC(=O)Cn1cc(-c2cc3c(N[C@H](c4ccc5c(c4)S(=O)(=O)CCC5)C(C)C)ncnc3[nH]2)cn1` (single isomer, unassigned) [ASAP-0011171], in data set [1], the perc_max_measured was 108.143%, the EC50 was above 20 µM and the EC90 was above 20 µM. For the same compound, the perc_min_measured in [1] (minimum measured response of dose series) was 92.194%. In addition, in data set [2], the EC50 was above 50 µM, the EC90 is above 50 µM, the perc_max_measured is listed as 106.027% and the perc_min_measured is 60.326%. Also, the logd in data set [3] (In vitro LogD) is reported as 2.4. For the same compound, in data set [4], the CC50 was above 50 µM, the cc10 is above 50.0 µM, the perc_max_measured turned out to be 98.842% and the perc_min_measured was determined as 89.646%. In data set [5] (ASAP-0008327-001=ASAP-0011171-001), the CC50 is above 50 µM. Further, in data set [6], the clint stood at 92.0 µL/min/mg, the perc_remaining came to 23.0%, the t_half was determined as 18.1 min and the perc_remaining_no_cofactor amounted to 101.0%. Besides, in data set [7], the papp_a_to_b_mean amounted to 0.396 ×10⁻⁶ cm/s and the perc_recovery_a_to_b_mean came to 65.1%. Further, the solubility_mean in data set [8] (setting [15]) came out at 323 µM (≈ 164 µg/mL). For the same compound, in [9] (setting [16]), the CC50 is above 20 µM, the cc10 was above 20.0 µM, the perc_max_measured worked out at 102.722% and the perc_min_measured is 92.936%. Moreover, in data set [10] (setting [17]), the clint is 111.0 µL/min/mg, the perc_remaining is 16.0% and the t_half is recorded as 15.0 min. In data set [10] (setting [18]), the perc_remaining_no_cofactor was determined as 96.0%.

Turning to `CNC(=O)Cn1cc(-c2cc3c(NC(c4ccc5c(c4)OCCO5)C(C)C)ncnc3[nH]2)cn1` (stereo not shown) [ASAP-0008565], in [3], the logd was 2.9. In addition, the perc_remaining in data set [6] stood at 14.0%; in data set [10] (setting [17]), 46.0%. In addition, the t_half in [6] is 14.0 min; in data set [10] (setting [17]) it was 35.7 min. For the same compound, the perc_remaining_no_cofactor is 92.0% in data set [6] and 90.0% in data set [10] (setting [18]). Moreover, the values for the microsomal CLint in data set [6] and in data set [10] (liver microsomes; In vitro mouse liver microsomal stability) were 119 µL/min/mg and 47 µL/min/mg, respectively. The perc_recovery_a_to_b_mean in [7] was 94.1%. The compound also displayed a Papp A→B in [11] of 1.94 ×10⁻⁶ cm/s. This compound also returned a solubility in [8] (pH 7.4) of 289 µM (≈ 133 µg/mL). This compound also yielded an IC50 in [12] (IC50, nsp3-mac1 activity, Figures 1-3 and text) of 0.25 µM. Further, the “increase in potency relative to the starting point” value in data set [12] (relative to ASAP-000450) amounted to 10 x.

For `OC[C@@H](Nc1ncnc2[nH]c(I)cc12)c1ccccc1` [ASAP-0000197], the perc_inhibition_mean in data set [13] stood at 26.134%. The inhibition at 50 µM in data set [14] (read-out: perc_inhibition_mean, batch_name=ASAP-0000197-001) is 26.1%. In data set [12], this compound registered a hill_slope of 1.082. In data set [12] (TR-FRET dose response), the perc_max_measured was 42.06% and the perc_min_measured is -3.652%. In data set [12] (setting [19]), the IC50 was above 124 µM.

`O=C(Nc1ccccc1)Nc1ccc(C(=O)NC2c3cccc(O)c3CC2C(=O)O)cc1` (stereo not shown) [ASAP-0000132] returned a logd in data set [3] (In vitro LogD) of 0.12. In data set [13], this compound registered a perc_inhibition_mean of 99.903%. The inhibition at 50 µM in [14] (read-out: perc_inhibition_mean, batch_name=ASAP-0000132-001) was 99.9%. Moreover, in data set [6], the clint turned out to be 9.0 µL/min/mg, the perc_remaining came out at 123.0%, the t_half was 187.2 min and the perc_remaining_no_cofactor turned out to be 96.0%. Also, in data set [7], the papp_a_to_b_mean is 0.7 ×10⁻⁶ cm/s and the perc_recovery_a_to_b_mean stood at 91.0%. Further, the solubility_mean in data set [8] (setting [15]) was 319 µM (≈ 138 µg/mL). Besides, in [12], the hill_slope is listed as 1.06. Further, in data set [12] (TR-FRET dose response), the perc_max_measured is reported as 99.438% and the perc_min_measured is recorded as -1.931%. The pic50 in data set [12] (TR-FRET dose response, supplement) was 5.991. Also, the IC50 in data set [12] (setting [19]) is 1.02 µM. Also, in [10] (setting [17]), the clint is 2.0 µL/min/mg, the perc_remaining was determined as 111.0% and the t_half turned out to be 1066.4 min. Also, the perc_remaining_no_cofactor in [10] (setting [20]) is listed as 99.0%.

In the case of `CC(C)[C@@H](Nc1ncnc2[nH]c(C(N)=O)cc12)c1ccc2c(c1)OCCO2` [ASAP-0008438], in data set [1], the perc_max_measured is 108.483% and 95.443%; the EC50 was above 20 µM; the EC90 is above 20 µM. In data set [2], the EC50 is above 50 µM, the EC90 was above 50 µM, the perc_max_measured worked out at 162.718% and the perc_min_measured was 51.066%. Further, in data set [4] (setting [21]), the CC50 was above 50 µM, the cc10 was above 50.0 µM, the perc_max_measured is 107.376% and the perc_min_measured is reported as 74.883%. Also, the CC50 in [5] (ASAP-0008327-001=ASAP-0008438-001) is above 50 µM. In addition, in data set [9], the cc10 is below 0.082 µM and the cc50 was below 0.082 µM. Further, in data set [9] (setting [16]), the perc_max_measured was 102.95% and 76.872%; the perc_min_measured was 63.007% and 58.0%.

Take `CC(C)C(Nc1ncnc2[nH]ccc12)c1ccc2c(c1)NC(=O)CO2` (stereo not shown) [ASAP-0008431]: in data set [3] (pH 7.4, logd, In vitro LogD), the logd was 2.2. For the same compound, the clint stood at 31.0 µL/min/mg in data set [6] and 78.0 µL/min/mg in [10] (setting [17]). Further, the perc_remaining is 73.0% and 56.0% in data set [6]; 26.0% and 27.0% in data set [10] (setting [17]). Besides, the t_half was 79.0 min and 54.3 min in data set [6]; 20.9 min and 21.4 min in data set [10] (setting [17]). The perc_remaining_no_cofactor in [6] is 105.0% and 92.0%; in data set [10] (setting [18]), 110.0%; in [10] (setting [20]), 93.0%. Also, the intrinsic metabolic clearance (microsomal CLint) in data set [6] (human) worked out at 21 µL/min/mg; in [10] (mouse, liver microsomes, In vitro mouse liver microsomal stability) it was 80 µL/min/mg. Moreover, the perc_recovery_a_to_b_mean in data set [7] is 86.0% and 98.9%. In addition, in data set [8] (setting [15]), the solubility_mean came to 374 µM (≈ 126 µg/mL). This compound also gave a solubility in data set [8] (pH 7.4, solubility_mean, In vitro kinetic solubility, ph 7.4) of 389 µM (≈ 131 µg/mL). The half-maximal inhibitory concentration (IC50) in data set [12] (HTRF IC50, Figure 4A, racemic mixture) stood at 0.39 µM.
